According to patent publication US7897591B2, “Method of treating fatty liver disease” (priority 2005, dated 2011):

Key:
C57BL/6 mice = test: Serum liver function tests (AP, ALT, total and direct bilirubin) in HCD mouse model; type: in vivo
Experimental: Experiments were performed on 5-6 week-old C57BL/6 mice (Jackson Laboratories, Bar Harbor, Me.). The animals, in groups of five, were housed in a barrier room and were acclimated to their environment for at least 72 hours prior to the initiation of each experiment. Animal protocols complied with the NIH Animal Research Advisory Committee guidelines and were approved by the Children's Hospital Boston Animal Care and Use Committee. Control animals (n=5) received normal chow and water ad libitum. All animals in the experimental groups were fed a fat-free, high carbohydrate liquid diet (HCD) ad libitum placed in one bottle per cage as previously described (3, 62). No additional sources of nutrition or hydration were provided. The HCD liquid solution contained 20% dextrose, a commercial mixture of 2% essential and nonessential amino acids (TrophAmine, B. Braun Medical, Irvine, Calif.), 2 ml trace elements (Trace Elements Injection 4, USP—Pediatric, American Regent Shirley, N.Y.), and 5 ml multivitamins (M.V.I. Pediatric™, Mayne Pharma, Paramus, N.J.). Each liter of HCD contained 30 meq sodium, 20 meq potassium chloride, 15 meq calcium, 10 meq magnesium, and 10 mM phosphate. The bottles were replaced daily with fresh HCD solution. HCD animals (n=5) received HCD only and no additional treatment for 19 days. The HCD+MAR animals (n=15) additionally received 100 mg/kg of Marimastat™ in 0.45% methylcellulose (Sigma-Aldrich Corporation, St. Louis, Mo.) vehicle twice daily via orogastric gavage. The animals were individually weighed every third day and at sacrifice. Mice were anesthetized with 300 μl of 2.5% Avertin (Tribromoethanol, Sigma-Aldrich Corporation, St. Louis, Mo.) by intraperitoneal injection. Approximately 400 μl of blood was collected from each mouse via retro-orbital puncture. The specimens were then placed into serum separator tubes (Becton Dickinson, Franklin Lakes, N.J.), and centrifuged at 4° C. at 8000 rpm for 10 minutes to separate serum. Serum was frozen at −80° C. and delivered to the Clinical Laboratory at Children's Hospital Boston for measurement of aspartate aminotransferase (AST), alanine aminotransferase (ALT), alkaline phosphatase (AP), and total (TB) and direct bilirubin (DB) levels. Furthermore, a fatty acid profile was performed on these samples and TNF-α soluble receptor II levels were determined as described below.

SREBP-1c = test: Western blot of liver SREBP-1c; type: in vivo, mouse; conditions: across the treatment groups
Experimental: Control animals (n=5) received normal chow and water ad libitum. All animals in the experimental groups were fed a fat-free, high carbohydrate liquid diet (HCD) ad libitum placed in one bottle per cage as previously described (3, 62). No additional sources of nutrition or hydration were provided. The HCD liquid solution contained 20% dextrose, a commercial mixture of 2% essential and nonessential amino acids (TrophAmine, B. Braun Medical, Irvine, Calif.), 2 ml trace elements (Trace Elements Injection 4, USP—Pediatric, American Regent Shirley, N.Y.), and 5 ml multivitamins (M.V.I. Pediatric™, Mayne Pharma, Paramus, N.J.). Each liter of HCD contained 30 meq sodium, 20 meq potassium chloride, 15 meq calcium, 10 meq magnesium, and 10 mM phosphate. The bottles were replaced daily with fresh HCD solution. HCD animals (n=5) received HCD only and no additional treatment for 19 days. The HCD+MAR animals (n=15) additionally received 100 mg/kg of Marimastat™ in 0.45% methylcellulose (Sigma-Aldrich Corporation, St. Louis, Mo.) vehicle twice daily via orogastric gavage. The animals were individually weighed every third day and at sacrifice. […] The assay was read at 595 nm and analyzed with Softmax® PRO Software (Molecular Devices Corporation, Sunnyvale, Calif.). 30 ug of protein per sample were analyzed by SDS-PAGE. […]

PPAR-α = test: Immunoprecipitation and SDS-PAGE of PPAR-α phosphorylation; type: in vivo, mouse; conditions: HCD+MAR group vs control and HCD-only
Experimental: Control animals (n=5) received normal chow and water ad libitum. All animals in the experimental groups were fed a fat-free, high carbohydrate liquid diet (HCD) ad libitum placed in one bottle per cage as previously described (3, 62). No additional sources of nutrition or hydration were provided. The HCD liquid solution contained 20% dextrose, a commercial mixture of 2% essential and nonessential amino acids (TrophAmine, B. Braun Medical, Irvine, Calif.), 2 ml trace elements (Trace Elements Injection 4, USP—Pediatric, American Regent Shirley, N.Y.), and 5 ml multivitamins (M.V.I. Pediatric™, Mayne Pharma, Paramus, N.J.). Each liter of HCD contained 30 meq sodium, 20 meq potassium chloride, 15 meq calcium, 10 meq magnesium, and 10 mM phosphate. The bottles were replaced daily with fresh HCD solution. HCD animals (n=5) received HCD only and no additional treatment for 19 days. The HCD+MAR animals (n=15) additionally received 100 mg/kg of Marimastat™ in 0.45% methylcellulose (Sigma-Aldrich Corporation, St. Louis, Mo.) vehicle twice daily via orogastric gavage. The animals were individually weighed every third day and at sacrifice. Immunoprecipitation was performed according to the Protein-G Immunoprecipitation Kit (Sigma-Aldrich Corporation, St. Louis, Mo.) protocol. […] The sample was then centrifuged and the supernatant was, analyzed by SDS-PAGE as detailed above.

CNC(=O)[C@@H](NC(=O)[C@H](CC(C)C)[C@H](O)C(=O)NO)C(C)(C)C [Marimastat]
total bilirubin level (C57BL/6 mice; HCD+MAR group compared to HCD-only group): significantly lower | serum alanine amino transferase (ALT) level (C57BL/6 mice; HCD+MAR group vs HCD-only, P<0.001): lower | serum alkaline phosphatase (AP) level (C57BL/6 mice; HCD+MAR group, P<0.001): significantly lower | direct bilirubin (DB) level (C57BL/6 mice; all 15 mice in HCD+MAR group, P<0.001): 0 | SREBP-1c protein level (SREBP-1c): unchanged | phosphorylation of PPAR-α (PPAR-α): marked increase
